Data as given in the RepoRT retention time repository.

experiment: RP, Waters ACQUITY Premier BEH C18, 100 × 2.1 mm, 1.7 µm, 40 °C, 0.3 to 0.4 mL/min, estimated dead time 0.73 min; A: water + 0.1% formic acid; B: acetonitrile + 0.1% formic acid; gradient (min/%B) 0/0.5 0.1/0.5 10/80 10.1/99.5 12/0.5 12.1/0.5 14.5/0.5; details: stereoisomer not certain

SMILES	LC retention time [min]
O=C(O)CCC(=O)O [SUCCINATE]	1.76
CS(=O)CCCCN=C=S (stereo not drawn) [SULFORAPHANE]	4.72
O=C(O)c1ccc(CO)o1 [SUMIKI'S ACID]	3.65
COc1cc(C(=O)O)cc(OC)c1O [SYRINGIC ACID]	3.98
COc1ccc(-c2cc(=O)c3c(OC)c(OC)c(OC)c(OC)c3o2)cc1 [TANGERETIN]	7.26
CC(CCC(=O)NCCS(=O)(=O)O)C1CCC2C3C(O)CC4CC(O)CCC4(C)C3CC(O)C12C (stereo not drawn) [TAUROCHOLIC ACID]	5.85
CCCCCCCCCCCCCC(=O)OC(CC(=O)[O-])C[N+](C)(C)C (stereo not drawn) [TETRADECANOYLCARNITINE]	7.44
O=c1cc(C2Oc3cc(O)cc(O)c3CC2O)cc2c(C3Oc4cc(O)cc(O)c4CC3O)cc(O)c(O)c2c1O (stereo not drawn) [THEAFLAVIN]	5.18
Cn1cnc2c1c(=O)[nH]c(=O)n2C [THEOBROMINE]	3.71
Cn1c(=O)c2[nH]cnc2n(C)c1=O [THEOPHYLLINE]	3.96
CSc1ncnc2nc[nH]c12 [THIOPURINE S-METHYLETHER]	4.31
NC(N)=S [THIOUREA]	0.942
Cc1cn(C2CC(O)C(COP(=O)(O)O)O2)c(=O)[nH]c1=O (stereo not drawn) [THYMIDINE-MONOPHOSPHATE]	2.73
Cc1cn(C2CC(O)C(CO)O2)c(=O)[nH]c1=O (stereo not drawn) [THYMIDINE]	3.56
Cc1c[nH]c(=O)[nH]c1=O [THYMINE]	2.99
Cc1ccc(C(C)C)c(O)c1 [THYMOL]	5.78
NC(Cc1cc(I)c(Oc2cc(I)c(O)c(I)c2)c(I)c1)C(=O)O (stereo not drawn) [THYROXINE]	6.62
O=C(O)/C=C/c1ccccc1 [TRANS-CINNAMATE]	6.45
OCC1OC(OC2OC(CO)C(O)C(O)C2O)C(O)C(O)C1O (stereo not drawn) [TREHALOSE]	0.911

SMILES	LC retention time [min]
OCC1OC(Oc2ccc3c(c2)OCC2c4cc5c(cc4OC32)OCO5)C(O)C(O)C1O (stereo not drawn) [TRIFOLIRHIZIN]	4.35
NCCc1c[nH]c2ccccc12 [TRYPTAMINE]	4.34
NCCc1ccc(O)cc1 [TYRAMINE]	2.81
NC(Cc1ccc(O)cc1)C(=O)O (stereo not drawn) [TYROSINE]	2.44
O=c1ccc2ccc(O)cc2o1 [UMBELLIFERONE]	4.61
O=C(O)CCCCCCCCCC(=O)O [UNDECANEDIOIC ACID]	6.09
O=C(O)c1c[nH]c(=O)[nH]c1=O [URACIL 5-CARBOXYLATE]	1.91
O=c1cc[nH]c(=O)[nH]1 [URACIL]	1.39
O=c1[nH]c(=O)c2[nH]c(=O)[nH]c2[nH]1 [URATE]	1.52
NC(=O)NCCC(=O)O [UREIDOPROPIONATE]	1.27
O=c1ccn(C2OC(COP(=O)(O)O)C(O)C2O)c(=O)[nH]1 (stereo not drawn) [URIDINE MONOPHOSPHATE]	1.26
O=c1ccn(C2OC(CO)C(O)C2O)c(=O)[nH]1 (stereo not drawn) [URIDINE]	2.45
O=C(O)C=Cc1cnc[nH]1 [UROCANATE]	1.39
CC(C)C(N)C(=O)O (stereo not drawn) [VALINE]	1.21
COc1cc(C(=O)O)ccc1O [VANILLIC ACID]	3.91
O=c1[nH]c(=O)c2[nH]cnc2[nH]1 [XANTHINE]	2.11
O=c1[nH]c(=O)c2ncn(C3OC(COP(=O)(O)O)C(O)C3O)c2[nH]1 (stereo not drawn) [XANTHOSINE-MONOPHOSPHATE]	1.87
O=c1[nH]c(=O)c2ncn(C3OC(CO)C(O)C3O)c2[nH]1 (stereo not drawn) [XANTHOSINE]	3.45
O=C(O)c1cc(=O)c2cccc(O)c2[nH]1 [XANTHURENATE]	3.98
